Results on five compounds are retold here after US20240208961A1, “EIF4E INHIBITORS AND USES THEREOF” (PIC Therapeutics, Inc., priority 2022, published 2024).

Assay type in all cases: cell-based
In experiment [1] the test system is MM.1R. The experiment can be described thus: Cell viability assay, suspension cell line, 5 day Alamar Blue (Example 8): MM.1R. Conditions: 120 h, Multiple Myeloma (Steroid Resistant) Cancer Cell. On the procedure: (§1) Cell viability assays were performed on certain compounds of the disclosure, according to the following procedure.
(§2) Cell line specific media conditions used:
(§3) The procedure for suspension cell line compound screening was as follows:
(§4) Day 1: Cell Seeding and Compound Dosing
(§5) • Cells were seeded 2×10^5 in 96-well cell culture treated tissue culture plates: 87.5 μL/well; MM.1 S, MM,1R, NCIH510A. • 5-fold serial dilution (8 point) of each compound in DMSO 0-25 mM in compound storage plates was prepared (stored at −80° C. if not to be used immediately). • Cells were rinsed with 1% FBS Media (appropriate to cell line as described above) and replaced with 87.5 μL media prior to dosing. • DMSO compound dilution series was diluted in 1% FBS media (appropriate to cell line as described above)—2 μL in 248 μL to give an 8× final concentration. • Cells were dosed 12.5 μL/well in triplicate to give final dose curved on cells 0-25 μM. • Media blank 100 μL/well×8 was set up. • All plates were incubated at 37° C.
(§6) Day 6: 5 Day Viability Assay
(§7) • Alamar Blue viability reagent was added (10 μL per well) and incubated for 3 hours at 37° C. prior to fluorescence detection (Ex560 nm/Em590 nm) on a Varioskan Lux multimode plate reader.
(§8) Results from cell viability assays are summarized in Table 23, wherein A represents IC50≤1 μM; B represents 1 μM<IC50≤8 μM; and C represents IC50>8 μM. Blank cells indicate that the compound was not tested in a particular assay.
On the technique in general: Alamar Blue is a resazurin reagent that responds to reducing activity.

Experiment [2] deals with T47D. As to the kind of experiment: Cell viability assay, adherent cell line, 5 day Alamar Blue (Example 8): T47D. To be noted: Homo sapiens, 120 h, Breast Cancer Cell Viability. The method, then: as §1, §2
(§9) The procedure for adherent cell line compound screening was as follows:
(§10) • Cells were seeded in 96-well cell culture treated tissue culture plates: ZR-75-1, NIHOVCAR3, T47D, and LOVO cells 4000 cells/well; and HPAFII 3000 cell/well
(§11) Day 3: Compound Dilution and Dosing
as §5, with “•” for “• Cells were seeded 2×10^5 in 96-well cell culture treated tissue culture plates: 87.5 μL/well; MM.1 S, MM,1R, NCIH510A. •”, “dosing. HPAFII was screened in normal 10% FBS Media.” for “dosing.”
(§12) Day 8: 5 Day Viability Assay
as §7, §8

Experiment [3] concerns ZR-75-1. The experiment can be described thus: ZR-75-1 compound screening cell viability, Alamar Blue (Example 6). Conditions: Homo sapiens, 96 h, ZR-75-1 cells, Media 1% FBS, read-out: ZR-75-1 Cell Viability, 4 Days: IC50.
The test system of experiment [4] is NCIH510A. As to the kind of experiment: Cell viability assay, suspension cell line, 5 day Alamar Blue (Example 8): NCIH510A. Conditions: Homo sapiens, NCI-H510A, 120 h, Small Cell Lung Cancer Cell Line. The method, then:
as §1, §2, §3, §4, §5, §6, §7, §8

Experiment [5] concerns LoVo. As to the kind of experiment: Cell viability assay, adherent cell line, 5 day Alamar Blue (Example 8): LoVo. To be noted: Homo sapiens, 120 h, Colorectal Cancer Cell Viability. On the procedure: as §1, §2, §9, §10, §11
as §5, with “•” for “• Cells were seeded 2×10^5 in 96-well cell culture treated tissue culture plates: 87.5 μL/well; MM.1 S, MM,1R, NCIH510A. •”, “dosing. HPAFII was screened in normal 10% FBS Media.” for “dosing.”
as §12, §7, §8

Experiment [6] concerns MM.1S. The experiment can be described thus: Cell viability assay, suspension cell line, 5 day Alamar Blue (Example 8): MM.1S. To be noted: Homo sapiens, MM1.S, 120 h, Multiple Myeloma (Steroid Sensitive) Cancer Cell. The method, then:
as §1, §2, §3, §4, §5, §6, §7, §8

The subject of experiment [7] is MM.1R cells. The experiment can be described thus: 5 day viability assay in MM.1R cells, I-11 and dexamethasone (Example 7). The method, then: (§13) Compound I-11 was studied in the context of dexamethasone combinations, which is used clinically in early Multiple Myeloma prior to the emergence of steroid resistance and is a common backbone therapy. The MM.1S cell line is a steroid sensitive line, and the MM.1R line is the corresponding cell line which has been driven to steroid resistance. The procedure for these studies was as follows:
as §4
(§14) • Cells were seeded 2×10^5 in 96-well cell culture treated tissue culture plates: 87.5 μL/well; MM.1 S and MM.1R • A 5-fold serial dilution of each compound in DMSO (0-25 mM) was prepared in compound storage plates (stored at −80° C. if not to be used immediately). An 8-point curve was used for compound I-11, and a 6-point curve was used for dexamethasone (0-25 mM). • Cells were rinsed with 1% FBS Media and replaced with 87.5 μL media prior to dosing. • DMSO compound dilution series was diluted in 1% FBS media—2 μL compound in 123 μL media to give a 16× final concentration. Dosing across the plate columns 1-12 (compound I-11 0-400 μM), 6.25 μL 16× in media/well. Dosing down plate rows (columns 1-6 dexamethasone 0-400 μM), 6.25 μL 16× compound in media per well. • Cells were dosed with 12.5 μL for both compounds, with 2 replicates of dosing matrix per 96-well plate. Final volume cells and compound was 100 μL/well. • Media blank 100 μL/well×8 was set up. • All plates were incubated at 37° C.
as §6, §7

Experiment [8] concerns MCL-1 protein. As to the kind of experiment: MCL-1 protein (eIF4E regulated) levels in multiple myeloma cell line MM.1R (FIG. 11B). To be noted: MM.1R cells, 2 hours.
The test system of experiment [9] is MM.1S cells. As to the kind of experiment: 5 day viability assay in MM.1S cells, I-11 and dexamethasone (Example 7). The method, then:
as §13, §4, §14, §6, §7

Experiment [10] concerns 4E-BP1. The experiment can be described thus: Hyperphosphorylation of 4E-BP1 in multiple myeloma cell line MM.1R (FIG. 11A). Conditions: MM.1R cells, 2 hours.

Bounds are passed on as bounds.

In the case of `CC(C)Cc1sc(Nc2ncc(-c3cccs3)cc2C(=O)O)nc1C1CCCCC1` [Compound I-3], the concentration for half-maximal inhibition (IC50) in experiment [1] is 1 to 8 µM; in [2], 1 to 8 µM; in experiment [3], less than 1 µM; in experiment [4] it was 1 to 8 µM; in [5] it was 1 to 8 µM; in [6], 1 to 8 µM.

As for `CC(C)Cc1sc(Nc2ncc(-c3cccs3)cc2C(=O)O)nc1C1=CCCC1` [Compound I-8], the IC50 in [1], in experiment [2], in experiment [4], in experiment [5] and in experiment [6] was no more than 1 µM in each case.

Consider `CC(C)Cc1sc(Nc2ncc(-c3cccs3)cc2C(=O)O)nc1C(C)(C)C` [Compound I-11], for which the half-inhibitory concentration (IC50) in experiment [7] (120 h, MM.1R cells (steroid resistant), 5 days, Alamar Blue, read-out: IC50 (μM), Viability Assessment (5 Days) in MM.1R Cells) is 0.179 µM; in experiment [1], no more than 1 µM; in [2], no more than 1 µM; in [3], less than 1 µM; in [4], no more than 1 µM; in [5], no more than 1 µM. Further, the IC50 in experiment [9] (Homo sapiens, MM1.S, 120 h, MM.1S cells (steroid sensitive), 5 days, Alamar Blue, read-out: IC50 (μM), Viability Assessment (5 Days) in MM.1S Cells) is 0.423 µM; in [6] it was no more than 1 µM. Moreover, in [7] (MM.1R cells, FIG. 12), the “viability of MM.1R cells” value is recorded as “significant decreases in viability”. Besides, the “MCL-1 protein (eIF4E regulated) levels” value in experiment [8] is listed as “reduces”. The “viability of MM.1S cells” value in experiment [9] (MM.1S cells, FIG. 12) is recorded as “significant decreases in viability”. Moreover, in experiment [9] (MM.1S cells, dosing matrix I-11 x dexamethasone, FIG. 13), the “impact on viability in combination with dexamethasone” value is “additive to dexamethasone”. Besides, in experiment [10], the “relative levels of hyperphospho-4E-BP1” value was “significantly lowers relative levels of hyperphospho-4E-BP1”.

For `CC(C)Cc1sc(Nc2ncc(-c3cccs3)cc2C(=O)O)nc1C1(C)CCCCC1` [Compound I-27], the IC50 in [1] is 1 to 8 µM; in experiment [2] it was no more than 1 µM; in experiment [4], no more than 1 µM; in experiment [5], no more than 1 µM; in experiment [6], 1 to 8 µM.

With `CC(C)Cc1sc(Nc2ncc(-c3cccs3)cc2C(=O)O)nc1C1CCC(F)(F)CC1` [Compound I-29], the concentration for half-maximal inhibition (IC50) in experiment [1] was 1 to 8 µM; in experiment [2], 1 to 8 µM; in experiment [4] it was no more than 1 µM; in experiment [5] it was 1 to 8 µM; in experiment [6], 1 to 8 µM.

The IC50 is the concentration that gives 50% inhibition.
